Test results as given in patent publication US20180010188A1, “METHOD FOR DETECTING NONSENSE-MEDIATED RNA DECAY” (The Regents of the University of California, priority 2016, published 2018).

Columns and labels:
[1] = system: cryptic isoforms of A230046K03Rik, Mib1 and Usp15; assay: Quantitative analysis of TDP-43-repressed cryptic exon splicing; format: cell-based, mouse
Text: To investigate the possible compounding effect of ER stress on TDP-43-mediated cryptic isoforms, we examined the expression of TDP-43-repressed cryptic exons with and without thapsigargin treatment. We designed specific PCR primers flanking the previously reported cryptic exons of A230046K03Rik, Mib1 and Usp15 and performed capillary electrophoresis to measure the ratios of the cryptic isoforms to the normal isoforms. The splicing of cryptic exons was not detected in cells treated with control siRNA or DMSO but was drastically boosted by RNAi-mediated depletion of Tdp-43 (FIGS. 5A-E).
Neuro-2a (N2a) cells were maintained in N2a complete media consisting of L-glutamine-free Dulbecco's modified Eagle's medium (DMEM), 10% FBS and 1× GlutaMAX at 37° C. Thapsigargin (VWR, cat. no. 89161-410), ionomycin (Fisher Scientific, cat. no. AG-CN2-0416-M001) and ouabain octahydrate (Fisher Scientific, cat. no. 80055-364) were dissolved in DMSO and stored at −80° C. […]
We optimized the PCR cycle numbers for Psd-95 (28 cycles), A230046K03Rik, Mib1 and Usp15 and eventually used 29 cycles for relative quantification of the transcript isoforms. […] The molar abundance (nM) of each isoform was quantified using QIAxcel Screengel software v1.4. Splicing of the cryptic exon was determined using the following formula. […]

[2] = system: Perk transcripts; assay: Perk transcript levels by RT-qPCR; format: cell-based, mouse; details: thapsigargin in control siRNA-pretreated cells
Protocol: Two independent siRNAs reduced the endogenous Perk transcripts to around 20% (FIG. 4A).
Neuro-2a (N2a) cells were maintained in N2a complete media consisting of L-glutamine-free Dulbecco's modified Eagle's medium (DMEM), 10% FBS and 1× GlutaMAX at 37° C. Thapsigargin (VWR, cat. no. 89161-410), ionomycin (Fisher Scientific, cat. no. AG-CN2-0416-M001) and ouabain octahydrate (Fisher Scientific, cat. no. 80055-364) were dissolved in DMSO and stored at −80° C. For the application of these chemicals, 750,000 cells were plated on 35 mm BioLite TC plates and incubated with 2 ml of N2a complete media overnight before treatment with the drugs at the indicated concentrations. The cells were collected at 5 hours post-treatment unless otherwise specified. The PERK inhibitor GSK2606414 (Thermo Fisher, cat. no. 501016108) was dissolved in DMSO and stored at −20° C. N2a cells were incubated with GSK2606414 for 1 hour before thapsigargin treatment. For L-glutamine deprivation, 750,000 N2a cells were plated overnight and switched to L-glutamine-free DMEM with 10% FBS. […]
Trizol (Life Technologies, cat. no. 15596-018) was directly added to the cells or mouse brain tissues to extract total RNA following the Trizol Reagent standard protocol. […] RNA concentrations were measured using a Nanodrop 2000c (Thermo Fisher). […] Relative expression (fold changes) was calculated using the ΔΔCt method. […]

SMILES: C/C=C(/C)C(=O)O[C@H]1C(C)=C2[C@H]([C@@H]1OC(=O)CCCCCCC)[C@@](C)(OC(C)=O)C[C@H](OC(=O)CCC)[C@@]1(O)[C@H]2OC(=O)[C@@]1(C)O [thapsigargin]
- level of cryptic isoforms in mock-transfected or control siRNA-transfected cells ([1]; 0.2 μM thapsigargin): no effect
- level of cryptic isoforms in TDP-43-deficient cells ([1]; 0.2 μM thapsigargin after siTdp43): further increased
- Perk transcript levels [2]: increased
